In ChEMBL document CHEMBL1129556, “Design, synthesis, and evaluation of latent alkylating agents activated by glutathione S-transferase” (J Med Chem, 1996):
pIC50: −log10 of the molar value.

How the values were obtained:
Homo sapiens [1] = species on record: Homo sapiens; assay: Inhibitory activity (treatment time 120 min) against MCF-7 pi cell line; format: functional; details: MCF7, 2 h
Homo sapiens [2] = species on record: Homo sapiens; assay: Inhibitory activity (treatment time 120 min) against MCF-7 neo cell line; format: functional; details: MCF7, 2 h

SMILES | pIC50 (Homo sapiens [1]) | pIC50 (Homo sapiens [2])
CCOC(=O)CNC(=O)C(CS(=O)(=O)CCOC(=O)N(CCCl)CCCl)NC(=O)CCC(N)C(=O)OCC (stereo not given) | 4.16 | 3.99
NC(CCC(=O)NC(CS(=O)(=O)CCOP(=O)(N(CCBr)CCBr)N(CCBr)CCBr)C(=O)NC(C(=O)O)c1ccccc1)C(=O)O (stereo not given) | 4.94 | 4.79
NC(CCC(=O)NC(CS(=O)(=O)CCOP(=O)(N(CCCl)CCCl)N(CCCl)CCCl)C(=O)NC(C(=O)O)c1ccccc1)C(=O)O (stereo not given) | 4.84 | 4.40
NC(CCC(=O)NC(CS(=O)(=O)CCOC(=O)N(CCCl)CCCl)C(=O)NCC(=O)O)C(=O)O (stereo not given) | 4.07 | 3.88
NC(CCC(=O)NC(CS(=O)(=O)C(COP(=O)(N(CCCl)CCCl)N(CCCl)CCCl)c1ccccc1)C(=O)NCC(=O)O)C(=O)O (stereo not given) | 4.87 | 4.67
